{"source": "patent US8394781B2", "about": "“Disaccharides for the treatment of tendons, ligaments, and bones” (Bioiberica, S.A., priority 2007, dated 2013)", "system": "human tenocytes", "test": "Human tenocyte adhesion and proliferation, in vitro culture, manual count in ten microscopic fields", "type": "cell-based", "settings": "IGF-1 10 ng/mL, same increase reached after 9 hours, FIG. 2", "experimental": "The objective was to determine the effect of compound Ic on human tenocyte proliferation and adhesion in an in vitro culture model, since a drug stimulating tenocyte proliferation and adhesion could be especially useful in the treatment or repair of tendons.\nFor comparison purposes, the effect of the growth factor IGF-1 on human tenocyte proliferation and adhesion in the same type of in vitro culture model was determined.\nThe increase of adhered tenocytes was quantified by means of manual count in ten microscopic fields.\nHuman tendon explants (of approximately 3-5 mm) were cultured in a culture flask with culture medium formed by 10% FCS, DMEM/Ham-12 (50/50) (Dulbecco's Modified Eagle's Medium with Ham-12), 50 IU/mL of penicillin/streptomycin, […] of ascorbic acid, 2.5 μg/mL of amphotericin B, 1% glutamine and 1% essential amino acids. […]\nTwelve-well plates were prepared with 15,000 tenocytes/well and they were incubated with 10% FCS (fetal calf serum). On the following day, the cells were washed three times with serum-free culture medium (0.5% FCS) and were incubated for 30 minutes with serum-free culture medium, after which the control cultures were counted (time “0 hours”). […]\nIn all the assays, the cells were incubated for 71 hours and each well was evaluated in each time period by means of a manual count in 10 microscopic fields. […]"}
{"substance": "IGF-1: growth factor IGF-1 (Insulin-like Growth Factor 1), used for comparison at 10 ng/mL", "values": [{"measurement": "increase in the number of adhered tenocytes with respect to the control", "value": "~45", "unit": "%"}]}
